# Experimental data taken from ChEMBL document CHEMBL4373744, “Modifying the lipophilic part of phenylthiazole antibiotics to control their drug-likeness” (Eur J Med Chem, 2020).
# How the values were obtained:
# [1] = tested on: Escherichia coli; test: Antimicrobial activity against Escherichia coli BW25113 by broth liquid microdilution method; assay type: functional
# [2] = tested on: Staphylococcus aureus; test: microbe, parasite or virus in culture; conditions: NRS384
# Description: Antimicrobial activity against methicillin-resistant Staphylococcus aureus NRS384 by broth liquid microdilution method
# [3] = tested on: Escherichia coli; test: Antimicrobial activity against Escherichia coli JW55031 harboring deltatolC mutant by broth liquid microdilution method; assay type: functional
# [4] = tested on: Staphylococcus aureus; test: Antimicrobial activity against vancomycin-resistant Staphylococcus aureus 10 by broth liquid microdilution method; assay type: functional
# [5] = tested on: Staphylococcus aureus; test: microbe, parasite or virus in culture; conditions: ATCC 6538
# Description: Antimicrobial activity against methicillin-sensitive Staphylococcus aureus ATCC 6538 by broth liquid microdilution method
# [6] = tested on: Enterococcus faecium; test: Antimicrobial activity against vancomycin-resistant Enterococcus faecium ATCC 700221 by broth liquid microdilution method; assay type: functional
# [7] = tested on: Staphylococcus aureus; test: microbe, parasite or virus in culture; conditions: NRS 386
# Description: Antimicrobial activity against methicillin-resistant Staphylococcus aureus NRS 386 by broth liquid microdilution method
# [8] = tested on: Staphylococcus aureus; test: microbe, parasite or virus in culture; conditions: NRS119
# Description: Antimicrobial activity against methicillin-resistant Staphylococcus aureus NRS119 by broth liquid microdilution method
# [9] = tested on: Staphylococcus aureus; test: Antimicrobial activity against vancomycin-resistant Staphylococcus aureus 12 by broth liquid microdilution method; assay type: functional
# [10] = tested on: Listeria monocytogenes; test: Antimicrobial activity against Listeria monocytogenes ATCC 19111 by broth liquid microdilution method; assay type: functional
# [11] = tested on: Streptococcus pneumoniae; test: Antimicrobial activity against cephalosporin-resistant Streptococcus pneumoniae ATCC 51916 by broth liquid microdilution method; assay type: functional
# [12] = tested on: Enterococcus faecalis; test: microbe, parasite or virus in culture; conditions: ATCC 51299
# [13] = tested on: Streptococcus pneumoniae; test: Antimicrobial activity against methicillin-resistant Streptococcus pneumoniae ATCC 700677 by broth liquid microdilution method; assay type: functional
# [14] = tested on: Staphylococcus aureus; test: microbe, parasite or virus in culture; conditions: NRS 107
# Description: Antimicrobial activity against methicillin-sensitive Staphylococcus aureus NRS 107 by broth liquid microdilution method
# [15] = tested on: Staphylococcus aureus; test: microbe, parasite or virus in culture; conditions: NRS123
# Description: Antimicrobial activity against methicillin-resistant Staphylococcus aureus NRS123 by broth liquid microdilution method
# [16] = tested on: Staphylococcus epidermidis; test: Antimicrobial activity against methicillin-resistant Staphylococcus epidermidis NRS101 by broth liquid microdilution method; assay type: functional
# [17] = tested on: Staphylococcus aureus; test: microbe, parasite or virus in culture; conditions: NRS 385
# Description: Antimicrobial activity against methicillin-resistant Staphylococcus aureus NRS 385 by broth liquid microdilution method
compound,measurement,setting,value
C/C(=N\NC(=N)N)c1sc(-c2ccc(OCCCCN3CCCC3)cc2)nc1C,MIC,[1],> 64 µg/mL
same,MIC,[2],> 64 µg/mL
same,MIC,[3],> 64 µg/mL
C/C(=N\NC(=N)N)c1sc(-c2ccc(OCCCCN3CCC4CCCCC4C3)cc2)nc1C (stereo not drawn),MIC,[1],> 64 µg/mL
same,MIC,[2],> 64 µg/mL
same,MIC,[3],> 64 µg/mL
C/C(=N\NC(=N)N)c1sc(-c2ccc(C#CCCN3CCCC(C)C3)cc2)nc1C (stereo not drawn),MIC,[1],> 64 µg/mL
same,MIC,[2],8 µg/mL
same,MIC,[3],64 µg/mL
C/C(=N\NC(=N)N)c1sc(-c2ccc(C#CCCN3CCC(C)CC3)cc2)nc1C,MIC,[1],> 64 µg/mL
same,MIC,[2],16 µg/mL
same,MIC,[3],> 64 µg/mL
C/C(=N\NC(=N)N)c1sc(-c2ccc(C#CCCN3CCC4CCCCC4C3)cc2)nc1C (stereo not drawn),MIC,[1],> 64 µg/mL
same,MIC,[2],> 64 µg/mL
same,MIC,[3],> 64 µg/mL
C/C(=N\NC(=N)N)c1sc(-c2ccc(OCCCN3CCC4CCCCC4C3)cc2)nc1C (stereo not drawn),MIC,[1],> 64 µg/mL
same,MIC,[2],64 µg/mL
same,MIC,[3],> 64 µg/mL
C/C(=N\NC(=N)N)c1sc(-c2ccc(OCCCCCN3CCCCC3C)cc2)nc1C (stereo not drawn),MIC,[1],> 64 µg/mL
same,MIC,[2],32 µg/mL
same,MIC,[3],32 µg/mL
C/C(=N\NC(=N)N)c1sc(-c2ccc(OCCCCCN3CCCCCC3)cc2)nc1C,MIC,[1],> 64 µg/mL
same,MIC,[2],> 64 µg/mL
same,MIC,[3],> 64 µg/mL
C/C(=N\NC(=N)N)c1sc(-c2ccc(OCCCCN3CCCCC3C)cc2)nc1C (stereo not drawn),MIC,[1],> 64 µg/mL
same,MIC,[2],> 64 µg/mL
same,MIC,[3],> 64 µg/mL
C/C(=N\NC(=N)N)c1sc(-c2ccc(OCCCCCN3CCCC(C)C3)cc2)nc1C (stereo not drawn),MIC,[1],> 64 µg/mL
same,MIC,[2],32 µg/mL
same,MIC,[3],64 µg/mL
C/C(=N\NC(=N)N)c1sc(-c2ccc(OCCCCN3CCSCC3)cc2)nc1C,MIC,[1],> 64 µg/mL
same,MIC,[2],> 64 µg/mL
same,MIC,[3],> 64 µg/mL
CC(=O)NC[C@H]1CN(c2ccc(N3CCOCC3)c(F)c2)C(=O)O1 [LINEZOLID],MBC,[4],> 64 µg/mL
same,MIC,[4],1 µg/mL
same,MBC,[5],16 µg/mL
same,MIC,[5],1 µg/mL
same,MBC,[6],16 µg/mL
same,MIC,[6],1 µg/mL
same,MBC,[7],64 µg/mL
same,MBC,[8],> 64 µg/mL
same,MIC,[8],64 µg/mL
same,MBC,[9],64 µg/mL
same,MIC,[9],1 µg/mL
same,MBC,[10],16 µg/mL
same,MIC,[10],≤ 0.5 µg/mL
same,MBC,[11],32 µg/mL
same,MBC,[2],32 µg/mL
same,MIC,[2],1 µg/mL
same,MBC,[12],16 µg/mL
same,MBC,[13],16 µg/mL
same,MBC,[14],64 µg/mL
same,MIC,[14],1 µg/mL
same,MBC,[15],32 µg/mL
same,MIC,[15],1 µg/mL
same,MBC,[16],16 µg/mL
same,MIC,[16],1 µg/mL
same,MBC,[17],32 µg/mL
same,MIC,[17],1 µg/mL
C/C(=N\NC(=N)N)c1sc(-c2ccc(OCCCN3CCCCCC3)cc2)nc1C,MIC,[1],> 64 µg/mL
same,MIC,[2],64 µg/mL
same,MIC,[3],> 64 µg/mL
C/C(=N\NC(=N)N)c1sc(-c2ccc(C#CCCN3CCCC3)cc2)nc1C,MIC,[1],> 64 µg/mL
same,MIC,[2],16 µg/mL
same,MIC,[3],> 64 µg/mL
C/C(=N\NC(=N)N)c1sc(-c2ccc(OCCCCCN3CCOCC3)cc2)nc1C,MIC,[1],> 64 µg/mL
same,MIC,[2],32 µg/mL
same,MIC,[3],32 µg/mL
C/C(=N\NC(=N)N)c1sc(-c2ccc(OCCCCCn3ccnc3)cc2)nc1C,MIC,[1],> 64 µg/mL
same,MIC,[2],> 64 µg/mL
same,MIC,[3],> 64 µg/mL
C/C(=N\NC(=N)N)c1sc(-c2ccc(OCCCN3CCCC3)cc2)nc1C,MIC,[1],> 64 µg/mL
same,MIC,[2],16 µg/mL
same,MIC,[3],32 µg/mL
C/C(=N\NC(=N)N)c1sc(-c2ccc(OCCCCCN3CCSCC3)cc2)nc1C,MIC,[1],> 64 µg/mL
same,MIC,[2],> 64 µg/mL
same,MIC,[3],> 64 µg/mL
C/C(=N\NC(=N)N)c1sc(-c2ccc(OCCCCN3CCCCC3)cc2)nc1C,MIC,[1],> 64 µg/mL
same,MIC,[2],> 64 µg/mL
same,MIC,[3],> 64 µg/mL
C/C(=N\NC(=N)N)c1sc(-c2ccc(OCCCCCN3CCN(C)CC3)cc2)nc1C,MIC,[1],> 64 µg/mL
same,MIC,[2],> 64 µg/mL
same,MIC,[3],> 64 µg/mL
C/C(=N\NC(=N)N)c1sc(-c2ccc(OCCCCN3CCCCCC3)cc2)nc1C,MIC,[1],> 64 µg/mL
same,MIC,[2],> 64 µg/mL
same,MIC,[3],> 64 µg/mL
C/C(=N\NC(=N)N)c1sc(-c2ccc(OCCCCN3CCC(C)CC3)cc2)nc1C,MIC,[1],> 64 µg/mL
same,MIC,[2],32 µg/mL
same,MIC,[3],32 µg/mL
C/C(=N\NC(=N)N)c1sc(-c2ccc(OCCCCN3CCC3)cc2)nc1C,MIC,[1],> 64 µg/mL
same,MIC,[2],8 µg/mL
same,MIC,[3],16 µg/mL
C/C(=N\NC(=N)N)c1sc(-c2ccc(OCCCN3CCC(C)CC3)cc2)nc1C,MIC,[1],> 64 µg/mL
same,MIC,[2],> 64 µg/mL
same,MIC,[3],> 64 µg/mL
C/C(=N\NC(=N)N)c1sc(-c2ccc(OCCCN3CCCCC3)cc2)nc1C,MIC,[1],> 64 µg/mL
same,MIC,[2],32 µg/mL
same,MIC,[3],64 µg/mL
